# Source: patent US12590091B2, “1H-pyrrolo[3,2-C]pyridine and 1H-pyrrolo[2,3-C]pyridine derivatives as TLR9 inhibitors for the treatment of fibrosis” (BRISTOL-MYERS SQUIBB COMPANY, priority 2020, dated 2026)
# How the values were obtained:
# [1] = biological target: T1, human TLR9 (Homo sapiens, UniProt Q9NR96); assay: TLR9 inhibition reporter assay (HEK-Blue cells, SEAP reporter); assay type: cell-based; conditions: HEK-Blue cells overexpressing human TLR9, stimulated with ODN2006 5 nM, 22 hour incubation
# T1 construct: host or cells: HEK-Blue cells
# T1 sequence (Q9NR96 26-1032): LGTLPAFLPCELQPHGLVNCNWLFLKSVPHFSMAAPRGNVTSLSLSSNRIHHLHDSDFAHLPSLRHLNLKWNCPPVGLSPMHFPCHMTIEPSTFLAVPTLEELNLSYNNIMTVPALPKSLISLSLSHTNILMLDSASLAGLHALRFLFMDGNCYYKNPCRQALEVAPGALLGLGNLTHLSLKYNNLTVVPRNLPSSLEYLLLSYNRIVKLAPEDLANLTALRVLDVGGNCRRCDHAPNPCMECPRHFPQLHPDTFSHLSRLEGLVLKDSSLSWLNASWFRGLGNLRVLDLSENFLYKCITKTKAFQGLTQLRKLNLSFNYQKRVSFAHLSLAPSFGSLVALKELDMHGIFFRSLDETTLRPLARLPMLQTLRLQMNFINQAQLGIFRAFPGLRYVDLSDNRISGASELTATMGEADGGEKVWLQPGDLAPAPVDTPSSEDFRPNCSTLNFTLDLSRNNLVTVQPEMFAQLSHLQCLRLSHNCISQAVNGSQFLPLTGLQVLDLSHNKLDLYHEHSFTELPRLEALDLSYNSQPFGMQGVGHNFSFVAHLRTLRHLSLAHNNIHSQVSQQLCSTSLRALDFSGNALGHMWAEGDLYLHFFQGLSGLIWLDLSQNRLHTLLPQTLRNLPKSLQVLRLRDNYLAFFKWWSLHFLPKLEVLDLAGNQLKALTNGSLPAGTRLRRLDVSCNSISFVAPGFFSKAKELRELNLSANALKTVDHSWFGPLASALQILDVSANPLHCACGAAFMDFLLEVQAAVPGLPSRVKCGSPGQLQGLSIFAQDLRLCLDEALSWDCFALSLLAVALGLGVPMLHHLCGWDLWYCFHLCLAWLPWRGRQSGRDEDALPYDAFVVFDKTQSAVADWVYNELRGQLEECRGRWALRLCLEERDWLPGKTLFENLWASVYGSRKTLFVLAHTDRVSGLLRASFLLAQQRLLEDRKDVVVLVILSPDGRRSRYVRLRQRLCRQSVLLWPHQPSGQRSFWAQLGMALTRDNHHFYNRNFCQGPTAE
# Procedure, shortened: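 Compound dose-response (0.05 nM–50 μM final) on agonist-stimulated human TLR9 HEK-Blue cells, 25,000/well, incubated 22 h at 37 °C, 5% CO2. Readout was secreted alkaline phosphatase under an IFN-β minimal promoter with NF-κB/AP-1 sites; inhibition expressed relative to DMSO and reference-inhibitor controls.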
# [2] = biological target: T2, human TLR7 (Homo sapiens, UniProt Q9NYK1); assay: TLR7 inhibition reporter assay (HEK-Blue cells, SEAP reporter); assay type: cell-based; conditions: HEK-Blue cells overexpressing human TLR7, stimulated with gardiquimod 7.5 μM, 22 hour incubation
# T2 construct: host or cells: HEK-Blue cells
# T2 sequence (Q9NYK1 27-1049): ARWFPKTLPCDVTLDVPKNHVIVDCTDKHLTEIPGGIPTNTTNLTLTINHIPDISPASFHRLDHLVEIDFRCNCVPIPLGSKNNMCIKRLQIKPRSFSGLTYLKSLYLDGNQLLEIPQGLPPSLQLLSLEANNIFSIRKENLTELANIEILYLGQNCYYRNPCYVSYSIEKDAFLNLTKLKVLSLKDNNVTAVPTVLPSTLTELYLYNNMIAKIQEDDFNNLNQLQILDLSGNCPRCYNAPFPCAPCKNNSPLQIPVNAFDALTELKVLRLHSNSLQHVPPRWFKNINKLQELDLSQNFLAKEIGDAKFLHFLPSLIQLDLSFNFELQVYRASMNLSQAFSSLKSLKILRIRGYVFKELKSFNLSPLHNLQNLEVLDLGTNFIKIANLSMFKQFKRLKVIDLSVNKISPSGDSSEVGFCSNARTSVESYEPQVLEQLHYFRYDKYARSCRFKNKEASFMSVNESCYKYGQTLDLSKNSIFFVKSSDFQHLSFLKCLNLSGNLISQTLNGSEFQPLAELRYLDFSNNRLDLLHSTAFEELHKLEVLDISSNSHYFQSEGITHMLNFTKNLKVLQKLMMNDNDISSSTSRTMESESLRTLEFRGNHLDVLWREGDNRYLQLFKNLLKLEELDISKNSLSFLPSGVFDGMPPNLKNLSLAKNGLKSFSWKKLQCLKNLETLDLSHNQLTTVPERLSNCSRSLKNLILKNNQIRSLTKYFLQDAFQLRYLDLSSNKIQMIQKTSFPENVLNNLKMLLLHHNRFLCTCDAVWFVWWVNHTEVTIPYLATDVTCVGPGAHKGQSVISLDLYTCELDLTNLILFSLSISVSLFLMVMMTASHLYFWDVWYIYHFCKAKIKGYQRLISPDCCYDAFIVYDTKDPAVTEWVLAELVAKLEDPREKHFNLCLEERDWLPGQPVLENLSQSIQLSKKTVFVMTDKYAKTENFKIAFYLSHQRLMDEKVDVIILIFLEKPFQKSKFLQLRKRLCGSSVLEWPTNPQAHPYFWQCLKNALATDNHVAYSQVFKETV
# Procedure, shortened: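 HEK-Blue cells overexpressing human TLR7, TLR8 or TLR9 carry a SEAP reporter driven by NF-κB/AP-1 sites. Compounds (0.05 nM–50 μM) were preincubated 30 min at room temperature, then cells were stimulated with gardiquimod 7.5 μM (TLR7), R848 15.9 μM (TLR8) or ODN2006 5 nM (TLR9) for 22 h at 37 °C.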
SMILES,IC50 [1] [nM],IC50 [2] [nM]
"Cc1nc(-c2ccc(N3CCN(CCCO)CC3)c(F)c2F)cc2c1cc(-c1ccc(S(C)(=O)=O)cc1)n2C [Example 55, 3-(4-(4-(1,4-dimethyl-2-(4-(methylsulfonyl)phenyl)-1H-pyrrolo[3,2-c]pyridin-6-yl)-2,3-difluorophenyl)piperazin-1-yl)propan-1-ol]",2810,5700
"COc1ccc(-c2c(C)[nH]c3cnc(C4CCN(C(=O)CN(C)C)CC4)cc23)cc1OC [Example 22, 1-(4-(3-(3,4-dimethoxyphenyl)-2-methyl-1H-pyrrolo[2,3-c]pyridin-5-yl)piperidin-1-yl)-2-(dimethylamino)ethan-1-one]",1570,9700
"COc1ccc(-c2c(C)n(C)c3cnc(C4CCN(C5CCN(C(=O)c6ccccc6)CC5)CC4)cc23)cc1OC [Example 19, (4-(3-(3,4-dimethoxyphenyl)-1,2-dimethyl-1H-pyrrolo[2,3-c]pyridin-5-yl)-[1,4′-bipiperidin]-1′-yl)(phenyl)methanone]",130,5200
"COc1ccc(-c2c(C)n(C)c3cnc(-c4ccc(N5CCN(C(C)C)CC5)cc4)cc23)cc1OC [Example 32, 3-(3,4-dimethoxyphenyl)-5-(4-(4-isopropylpiperazin-1-yl)phenyl)-1,2-dimethyl-1H-pyrrolo[2,3-c]pyridine]",170,1400
"Cc1nc(-c2ccc(N3CCN(C4CCOC4)CC3)cc2)cc2c1cc(-c1ccc(S(C)(=O)=O)cc1)n2C (centres unmarked) [Example 37, 1,4-dimethyl-2-(4-(methylsulfonyl)phenyl)-6-(4-(4-(tetrahydrofuran-3-yl)piperazin-1-yl)phenyl)-1H-pyrrolo[3,2-c]pyridine]",57,11700
"COc1ccc(-c2c(C)c3cc(C4CCN(C5CCN(CC(C)C)CC5)CC4)ncc3n2C)cc1OC [Example 13, 2-(3,4-dimethoxyphenyl)-5-(1′-isobutyl-[1,4′-bipiperidin]-4-yl)-1,3-dimethyl-1H-pyrrolo[2,3-c]pyridine]",191,17300
"COCCN1C2CCC1CN(c1ccc(-c3cc4c(cc(-c5ccc(S(C)(=O)=O)cc5)n4C)c(C)n3)cc1F)C2 [Example 75, 6-(3-fluoro-4-(8-(2-methoxyethyl)-3,8-diazabicyclo[3.2.1]octan-3-yl)phenyl)-1,4-dimethyl-2-(4-(methylsulfonyl)phenyl)-1H-pyrrolo[3,2-c]pyridine]",75,2200
"Cc1nc(-c2ccc(N3CCN(C4CCOCC4)CC3)cc2)cc2c1cc(-c1ccc(S(C)(=O)=O)cc1)n2C [Example 35, 1,4-dimethyl-2-(4-(methylsulfonyl)phenyl)-6-(4-(4-(tetrahydro-2H-pyran-4-yl)piperazin-1-yl)phenyl)-1H-pyrrolo[3,2-c]pyridine]",710,16800
"Cc1nc(-c2ccc(C3(O)CCN(C(C)C)CC3)c(F)c2)cc2c1cc(-c1ccc(S(C)(=O)=O)cc1)n2C [Example 107, 4-(4-(1,4-dimethyl-2-(4-(methylsulfonyl)phenyl)-1H-pyrrolo[3,2-c]pyridin-6-yl)-2-fluorophenyl)-1-isopropylpiperidin-4-ol]",18,2100
"COc1ccc(-c2c(C)[nH]c3cnc(-c4ccc(N5CCN(C(C)C)CC5)cc4)cc23)cc1OC [Example 2, 3-(3,4-dimethoxyphenyl)-5-(4-(4-isopropylpiperazin-1-yl)phenyl)-2-methyl-1H-pyrrolo[2,3-c]pyridine]",157,2700
"Cc1nc(-c2ccc(N3CCN(CCO)CC3)c(F)c2)cc2c1cc(-c1ccc(S(C)(=O)=O)cc1)n2C [Example 69, 2-(4-(4-(1,4-dimethyl-2-(4-(methylsulfonyl)phenyl)-1H-pyrrolo[3,2-c]pyridin-6-yl)-2-fluorophenyl)piperazin-1-yl)ethan-1-ol]",78,23700
"CC(C)N1CCN(Cc2ccc(-c3cc4c(cc(-c5ccc(S(C)(=O)=O)cc5)n4C)c(C(C)(C)O)n3)cc2)CC1 [Example 125, 2-(6-(4-((4-isopropylpiperazin-1-yl)methyl)phenyl)-1-methyl-2-(4-(methylsulfonyl)phenyl)-1H-pyrrolo[3,2-c]pyridin-4-yl)propan-2-ol]",133,3100
"Cc1nc(-c2ccc(C3(O)CCN(C(C)(C)C)CC3)cc2F)cc2c1cc(-c1ccc(S(C)(=O)=O)cc1)n2C [Example 108, 1-(tert-butyl)-4-(4-(1,4-dimethyl-2-(4-(methylsulfonyl)phenyl)-1H-pyrrolo[3,2-c]pyridin-6-yl)-3-fluorophenyl)piperidin-4-ol]",204,1700
